# In patent publication US20180208605A1, “Substituted Aza Compounds as IRAK-4 Inhibitors” (AURIGENE DISCOVERY TECHNOLOGIES LIMITED, priority 2015, published 2018):
# Structures can show the parent of a compound that is named as a salt. Where two headings read alike, the source gives them in different places.
# Biological target: T1, recombinant IRAK-4 kinase (Homo sapiens, UniProt Q9NWZ3)
# T1 construct: purchased Millipore, USA
# T1 sequence (Q9NWZ3 1-460): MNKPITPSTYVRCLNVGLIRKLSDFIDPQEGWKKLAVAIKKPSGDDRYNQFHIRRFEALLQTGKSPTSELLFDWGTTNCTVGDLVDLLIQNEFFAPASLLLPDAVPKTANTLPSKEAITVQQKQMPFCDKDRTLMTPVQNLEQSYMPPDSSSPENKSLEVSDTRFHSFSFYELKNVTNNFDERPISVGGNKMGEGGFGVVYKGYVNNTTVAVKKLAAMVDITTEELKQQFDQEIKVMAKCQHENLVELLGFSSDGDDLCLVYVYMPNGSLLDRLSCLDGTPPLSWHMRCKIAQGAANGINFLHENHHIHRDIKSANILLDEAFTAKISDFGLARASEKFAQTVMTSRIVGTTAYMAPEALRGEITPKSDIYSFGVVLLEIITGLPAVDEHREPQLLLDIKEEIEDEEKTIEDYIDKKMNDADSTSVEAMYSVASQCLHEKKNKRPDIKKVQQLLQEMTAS
# Assay: IRAK-4 Biochemical Assay (TR-FRET, percent inhibition)
# Conditions: for % inhibition of IRAK-4 @0.1 μM: compound at 0.1 μM; for % inhibition of IRAK-4 @ 1 μM: compound at 1 μM
# Experimental: Compounds were tested for their potential to inhibit IRAK-4 enzyme in a TR-FRET assay using recombinant IRAK-4 kinase from Millipore, USA. The assay buffer was 50 mM Tris-HCl pH 7.5, 20 mM MgCl2, 1 mM EGTA, 2 mM DTT, 3 mM MnCl2 and 0.01% Tween 20.5 ng of IRAK-4 kinase was used for the assay. After pre-incubation of enzyme with test compound for 30 minutes at room temperature, a substrate mixture containing 100 nM Biotin Histone H3 (Millipore, USA) and 20 μM ATP (Sigma, USA) was added and the reaction was incubated for 30 min. Post incubation, the reaction was stopped by the addition of stop mix containing 40 mM EDTA, 1 nM of Europium-Anti-Phospho-Histone H3 (Ser10) antibody (Perkin Elmer, USA) and 20 nM SureLight Allophycocyanin-Streptavidin (Perkin Elmer, USA). The fluorescence emission at 615 nm and 665 nm were measured at an excitation of 340 nm and the percent inhibition was estimated from the ratio of the fluorescence intensities [(F665/F615)×10000].
# [1] = read-out: % inhibition of IRAK-4 @0.1 μM, compound at 0.1 μM, TR-FRET, 20 μM ATP, 100 nM Biotin Histone H3
# [2] = read-out: % inhibition of IRAK-4 @ 1 μM, compound at 1 μM, TR-FRET, 20 μM ATP, 100 nM Biotin Histone H3
# [3] = TR-FRET, 20 μM ATP, 100 nM Biotin Histone H3
Structure (SMILES),inhibition at 0.1 µM [1],inhibition at 1 µM [2],other results
"Nc1ccc(-c2cccc(C(=O)Nc3cc4oc(N5CCOCC5)nc4nc3N3CC[C@@H](O)C3)n2)cn1 [Example 90, (R)-6′-amino-N-(5-(3-hydroxypyrrolidin-1-yl)-2-morpholinooxazolo[4,5-b]pyridin-6-yl)-[2,3′-bipyridine]-6-carboxamide hydrochloride]",87%,97%,
"O=C(Nc1cc2sc(N3CCOCC3)nc2nc1C1CC1)c1cncc(N2CCC(O)C2)n1 (stereo not drawn) [Example 50, N-(5-cyclopropyl-2-morpholinothiazolo[4,5-b]pyridin-6-yl)-6-(3-hydroxypyrrolidin-1-yl)pyrazine-2-carboxamide]",67%,95%,
"O=C(Nc1cc2sc(N3CCOCC3)nc2nc1N1CC[C@@H](O)C1)c1cnn2cccnc12 [Example 103, (R)-N-(5-(3-hydroxypyrrolidin-1-yl)-2-morpholinothiazolo[4,5-b]pyridin-6-yl)pyrazolo[1,5-a]pyrimidine-3-carboxamide hydrochloride]",92%,97%,
"N[C@H]1CCN(c2cccc(C(=O)Nc3cc4sc(N5CCOCC5)nc4nc3N3CCCCC3)n2)C1 [Example 26, (S)-6-(3-aminopyrrolidin-1-yl)-N-(2-morpholino-5-(piperidin-1-yl)thiazolo[4,5-b]pyridin-6-yl)picolinamide]",87%,92%,
"NCC(=O)O[C@H]1CCN(c2cncc(C(=O)Nc3cc4sc(N5CCOCC5)nc4nc3N3CCCCC3)n2)C1 [Example 65, (S)-1-(6-((2-morpholino-5-(piperidin-1-yl)thiazolo[4,5-b]pyridin-6-yl)carbamoyl)pyrazin-2-yl)pyrrolidin-3-yl glycinate]",92%,97%,
"Cl.O=C(Nc1cc2sc(N3CCOCC3)nc2nc1C1CC1)c1cnn2cccnc12 [Example 106, N-(5-cyclopropyl-2-morpholinothiazolo[4,5-b]pyridin-6-yl)pyrazolo[1,5-a]pyrimidine-3-carboxamide hydrochloride]",,,% inhibition of IRAK-4 @0.1 μM [3]: 93%; % inhibition of IRAK-4 @ 1 μM [3]: 97%
"Nc1ccc(-c2cccc(C(=O)Nc3cc4oc(N5CCOCC5)nc4nc3N3CCOCC3)n2)cn1 [Example 92, 6′-amino-N-(2,5-dimorpholinooxazolo[4,5-b]pyridin-6-yl)-[2,3′-bipyridine]-6-carboxamide hydrochloride]",78%,96%,
"N[C@H]1CCCCC1Nc1ccn2ncc(C(=O)Nc3cc4sc(N5CCOCC5)nc4nc3C3CC3)c2n1 (stereo partly drawn) [Example 98, 2,2,2-trifluoroacetate]",94%,97%,
"Nc1cc(-c2cccc(C(=O)Nc3cc4sc(N5CCOCC5)nc4nc3C3CC3)n2)ccn1 [Example 52, 2′-amino-N-(5-cyclopropyl-2-morpholinothiazolo[4,5-b]pyridin-6-yl)-[2,4′-bipyridine]-6-carboxamide]",95%,96%,
"O=C(Nc1cc2sc(N3CCOCC3)nc2nc1N1CCCCC1)c1ccnc(N2CC[C@@H](O)C2)n1 [Example 59, (R)-2-(3-hydroxypyrrolidin-1-yl)-N-(2-morpholino-5-(piperidin-1-yl)thiazolo[4,5-b]pyridin-6-yl)pyrimidine-4-carboxamide]",91%,99%,
"Cc1cc(-c2nc(C(=O)Nc3cc4sc(N5CCN(C(=O)CO)CC5)nc4nc3N3CCCCC3)co2)ccn1 [Example 10, N-(2-(4-(2-hydroxyacetyl)piperazin-1-yl)-5-(piperidin-1-yl)thiazolo[4,5-b]pyridin-6-yl)-2-(2-methylpyridin-4-yl)oxazole-4-carboxamide hydrochloride]",100%,100%,
"Cc1cc(-c2nc(C(=O)Nc3cc4oc(N5CCOCC5)nc4nc3N3CC[C@@H](OC(=O)CN)C3)co2)ccn1 [Example 97, (R)-1-(6-(2-(2-methylpyridin-4-yl)oxazole-4-carboxamido)-2-morpholinooxazolo[4,5-b]pyridin-5-yl)pyrrolidin-3-yl glycinate]",87%,99%,
"O=C(Nc1cc2sc(N3CCOCC3)nc2nc1N1CCCCC1)c1cnn2cccnc12 [Example 19, N-(2-morpholino-5-(piperidin-1-yl)thiazolo[4,5-b]pyridin-6-yl)pyrazolo[1,5-a]pyrimidine-3-carboxamide]",,,% inhibition of IRAK-4 @0.1 μM [3]: 98%; % inhibition of IRAK-4 @ 1 μM [3]: 99%
"Nc1cc(-c2nc(C(=O)Nc3cc4oc(N5CCOCC5)nc4nc3N3CC[C@@H](O)C3)co2)c(Cl)cn1 [Example 88, (R)-2-(2-amino-5-chloropyridin-4-yl)-N-(5-(3-hydroxypyrrolidin-1-yl)-2-morpholinooxazolo[4,5-b]pyridin-6-yl)oxazole-4-carboxamide]",15%,,
"Cc1cc(-c2nc(C(=O)Nc3cc4sc(N5CCNCC5)nc4nc3N3CCCCC3)co2)ccn1 [Example 7, 2-(2-methylpyridin-4-yl)-N-(2-(piperazin-1-yl)-5-(piperidin-1-yl)thiazolo[4,5-b]pyridin-6-yl)oxazole-4-carboxamide hydrochloride]",99%,99%,
"Cc1cc(-c2nc(C(=O)Nc3cc4oc(N5CCOCC5)nc4nc3OC3CCC(N4CCOCC4)CC3)co2)ccn1 (stereo not drawn) [Example 16, 2-(2-methylpyridin-4-yl)-N-(2-morpholino-5-(((1r,4r)-4-morpholinocyclohexyl)oxy)oxazolo[4,5-b]pyridin-6-yl)oxazole-4-carboxamide hydrochloride]",94%,99%,
"CCOC(=O)O[C@H]1CCN(c2cccc(C(=O)Nc3cc4sc(N5CCOCC5)nc4nc3N3CCCCC3)n2)C1 [Example 58, (S)-ethyl (1-(6-((2-morpholino-5-(piperidin-1-yl)thiazolo[4,5-b]pyridin-6-yl)carbamoyl)pyridin-2-yl)pyrrolidin-3-yl)carbonate]",71%,96%,
"CCOP(=O)(OCC)O[C@H]1CCN(c2cccc(C(=O)Nc3cc4sc(N5CCOCC5)nc4nc3N3CCCCC3)n2)C1 [Example 47, (S)-diethyl (1-(6-((2-morpholino-5-(piperidin-1-yl)thiazolo[4,5-b]pyridin-6-yl)carbamoyl)pyridin-2-yl)pyrrolidin-3-yl)phosphate]",,,inhibition at 0.1 µM (read-out: % inhibition of IRAK-4 @0.1 μM): 18%; inhibition at 1 µM (read-out: % inhibition of IRAK-4 @ 1 μM): 58%
"O=C(Nc1cc2sc(N3CCOCC3)nc2nc1N1CCCCC1)c1cccc(N2CC(C(=O)O)NC2=O)n1 (stereo not drawn) [Example 49, 1-(6-((2-morpholino-5-(piperidin-1-yl)thiazolo[4,5-b]pyridin-6-yl)carbamoyl)pyridin-2-yl)-2-oxoimidazolidine-4-carboxylic acid]",79%,96%,
"Nc1cc(-c2nc(C(=O)Nc3cc4sc(N5CCOCC5)nc4nc3N3CCCCC3)co2)c(Cl)cn1 [Example 12, 2-(2-amino-5-chloropyridin-4-yl)-N-(2-morpholino-5-(piperidin-1-yl)thiazolo[4,5-b]pyridin-6-yl)oxazole-4-carboxamide]",98%,98%,
"Cc1cc(-c2ccc(C(=O)Nc3cc4sc(N5CCOCC5)nc4nc3N3CCCC(O)(CO)C3)o2)ccn1 (stereo not drawn) [Example 5, N-(5-(3-hydroxy-3-(hydroxymethyl)piperidin-1-yl)-2-morpholinothiazolo[4,5-b]pyridin-6-yl)-5-(2-methylpyridin-4-yl)furan-2-carboxamide hydrochloride]",98%,99%,
"C[C@H](O)Cn1cc(-c2cccc(C(=O)Nc3cc4oc(N5CCOCC5)nc4nc3N3CC[C@@H](O)C3)n2)cn1 [Example 94, 6-(1-((S)-2-hydroxypropyl)-1H-pyrazol-4-yl)-N-(5-((R)-3-hydroxypyrrolidin-1-yl)-2-morpholinooxazolo[4,5-b]pyridin-6-yl)picolinamide]",12%,60%,
"Cc1cc(-c2c[nH]c(C(=O)Nc3cc4sc(N5CCOCC5)nc4nc3N3CC[C@@H](O)C3)n2)ccn1 [Example 72, (R)-N-(5-(3-hydroxypyrrolidin-1-yl)-2-morpholinothiazolo[4,5-b]pyridin-6-yl)-4-(2-methylpyridin-4-yl)-1H-imidazole-2-carboxamide 2,2,2-trifluoroacetate]",98%,97%,
